Data published in patent US20240415923A1, “RNA-Dependent RNA Polymerase Inhibitory Compounds, Uses in Managing Viral Infections, and Pharmaceutical Compositions” (priority 2023, published 2024).
Counter-ions that a name gives are not always drawn. Starred links: 1 amine or outer side, 2 acyl side, 3 side chain; linkers in the order of their positions; H or OH if unused. Positions of bridges follow the written chain, without caps; N, C: chain ends. Non-standard residues stand in square brackets, D forms with d. Residues, ends and D or L forms follow the SMILES beside them. *: point of attachment. hTyr(3S-OH,4S-OH,3'-OSO3H) = N[C@H](C(=O)O)[C@H](O)[C@@H](O)c1ccc(O)c(OS(=O)(=O)O)c1; Orn(4R-OH,5R-OH) = O=C([C@H](C[C@@H](O)[C@@H](O)N[*:3])N[*:1])[*:2]; Pro(3S-OH,4S-Me) = C[C@H]1CN[C@H](C(=O)O)[C@H]1O; X1 = CCCCCOc1ccc(-c2cc(-c3ccc(C(=O)*)cc3)no2)cc1; Gln(3R-OH) = NC(=O)C[C@@H](O)[C@H](N)C(=O)O; Hyp = O=C(O)[C@@H]1C[C@@H](O)CN1

Key:
RSV polymerase (L-P) [1] = target: T1, RSV polymerase (L-P) (Human respiratory syncytial virus A, UniProt P28887); assay: in vitro de novo RNA synthesis assay, TrC12 template; type: biochemical
RSV polymerase (L-P) [2] = target: T1, RSV polymerase (L-P); assay: in vitro primer-based RNA synthesis assay, TrC12 template and Tr4 primer; type: biochemical; details: 1 mM, TrC12 template, FIG. 3B
[3] = target: VSV polymerase (L-P1-106) (Vesicular stomatitis Indiana virus, UniProt P03523); type: biochemical; details: 1 mM
NiV polymerase (L-P) = NiV polymerase (L-P) (Nipah virus, UniProt Q997F0); type: biochemical; details: 1 mM
VSBV polymerase (L-P) = type: biochemical, variegated squirrel bornavirus (VSBV); details: 1 mM
[4] = target: T2, SARS-COV2 polymerase (Nsp7-Nsp8-Nsp12) (Severe acute respiratory syndrome coronavirus 2, UniProt P0DTD1); type: biochemical, severe acute respiratory syndrome coronavirus 2 (SARS-COV2); details: 1 mM
T2 construct: SARS-COV2 polymerase (Nsp7-Nsp8-Nsp12); made in house

T1 sequence (P03421 whole entry): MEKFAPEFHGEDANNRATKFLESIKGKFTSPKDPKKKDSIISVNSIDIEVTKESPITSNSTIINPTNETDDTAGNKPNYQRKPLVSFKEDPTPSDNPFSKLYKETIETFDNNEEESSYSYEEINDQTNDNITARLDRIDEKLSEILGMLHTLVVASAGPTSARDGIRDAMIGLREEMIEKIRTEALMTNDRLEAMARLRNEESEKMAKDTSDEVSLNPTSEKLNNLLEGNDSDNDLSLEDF
T1 sequence (P28887 whole entry): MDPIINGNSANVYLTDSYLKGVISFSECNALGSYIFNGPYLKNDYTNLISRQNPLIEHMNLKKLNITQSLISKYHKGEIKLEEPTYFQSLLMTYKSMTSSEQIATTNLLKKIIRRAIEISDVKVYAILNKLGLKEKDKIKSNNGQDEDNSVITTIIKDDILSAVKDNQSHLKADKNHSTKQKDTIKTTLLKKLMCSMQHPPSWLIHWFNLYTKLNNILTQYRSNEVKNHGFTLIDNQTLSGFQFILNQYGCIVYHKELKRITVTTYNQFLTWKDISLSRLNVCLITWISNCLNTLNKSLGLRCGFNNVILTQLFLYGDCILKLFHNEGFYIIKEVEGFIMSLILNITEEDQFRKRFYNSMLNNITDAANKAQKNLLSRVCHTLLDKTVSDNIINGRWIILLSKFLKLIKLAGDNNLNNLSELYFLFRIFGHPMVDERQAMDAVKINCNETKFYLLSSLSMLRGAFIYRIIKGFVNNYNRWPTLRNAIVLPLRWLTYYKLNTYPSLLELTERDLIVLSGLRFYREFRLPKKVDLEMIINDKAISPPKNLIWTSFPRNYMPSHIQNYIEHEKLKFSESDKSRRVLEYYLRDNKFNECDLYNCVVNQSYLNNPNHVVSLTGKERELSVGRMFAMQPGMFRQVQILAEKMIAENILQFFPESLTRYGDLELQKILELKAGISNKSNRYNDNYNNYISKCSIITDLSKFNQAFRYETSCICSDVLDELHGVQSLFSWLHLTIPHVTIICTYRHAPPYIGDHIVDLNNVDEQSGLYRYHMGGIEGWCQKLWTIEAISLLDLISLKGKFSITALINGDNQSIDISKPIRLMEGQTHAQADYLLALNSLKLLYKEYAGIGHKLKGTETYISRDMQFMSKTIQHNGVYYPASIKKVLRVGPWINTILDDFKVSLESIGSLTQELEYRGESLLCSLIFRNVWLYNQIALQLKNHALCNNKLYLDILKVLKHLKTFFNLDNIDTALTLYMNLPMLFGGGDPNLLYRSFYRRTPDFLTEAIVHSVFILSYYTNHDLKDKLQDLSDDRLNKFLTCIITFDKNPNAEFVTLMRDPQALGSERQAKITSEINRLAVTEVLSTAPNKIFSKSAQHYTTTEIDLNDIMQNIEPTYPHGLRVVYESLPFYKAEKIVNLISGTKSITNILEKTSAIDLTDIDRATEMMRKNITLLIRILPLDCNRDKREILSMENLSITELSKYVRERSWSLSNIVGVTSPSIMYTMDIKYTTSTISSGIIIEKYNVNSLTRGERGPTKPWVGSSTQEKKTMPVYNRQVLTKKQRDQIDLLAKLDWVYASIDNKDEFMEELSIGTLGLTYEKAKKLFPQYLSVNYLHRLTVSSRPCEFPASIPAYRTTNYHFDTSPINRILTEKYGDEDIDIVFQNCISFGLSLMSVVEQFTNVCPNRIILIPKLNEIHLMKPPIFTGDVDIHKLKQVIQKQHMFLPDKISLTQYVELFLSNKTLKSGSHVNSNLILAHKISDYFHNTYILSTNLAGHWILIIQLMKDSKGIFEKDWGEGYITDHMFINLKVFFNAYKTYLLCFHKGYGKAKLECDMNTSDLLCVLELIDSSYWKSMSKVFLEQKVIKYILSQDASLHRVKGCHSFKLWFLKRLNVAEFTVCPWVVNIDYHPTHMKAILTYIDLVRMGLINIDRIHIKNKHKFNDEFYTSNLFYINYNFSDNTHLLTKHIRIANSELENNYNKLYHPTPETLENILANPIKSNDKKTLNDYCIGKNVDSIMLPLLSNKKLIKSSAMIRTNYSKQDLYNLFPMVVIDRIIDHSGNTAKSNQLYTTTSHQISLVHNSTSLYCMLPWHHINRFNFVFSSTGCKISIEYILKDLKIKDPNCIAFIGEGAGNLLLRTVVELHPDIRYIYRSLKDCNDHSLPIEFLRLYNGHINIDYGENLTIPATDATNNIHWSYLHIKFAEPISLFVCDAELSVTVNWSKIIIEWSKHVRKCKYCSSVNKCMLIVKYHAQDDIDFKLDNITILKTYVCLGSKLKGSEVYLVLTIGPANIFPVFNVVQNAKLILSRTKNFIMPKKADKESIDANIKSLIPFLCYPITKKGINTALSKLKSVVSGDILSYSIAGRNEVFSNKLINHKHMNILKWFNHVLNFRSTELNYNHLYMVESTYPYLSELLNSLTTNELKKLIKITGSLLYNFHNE
Sequence of NiV polymerase (L-P) (Q997F0 whole entry, looked up): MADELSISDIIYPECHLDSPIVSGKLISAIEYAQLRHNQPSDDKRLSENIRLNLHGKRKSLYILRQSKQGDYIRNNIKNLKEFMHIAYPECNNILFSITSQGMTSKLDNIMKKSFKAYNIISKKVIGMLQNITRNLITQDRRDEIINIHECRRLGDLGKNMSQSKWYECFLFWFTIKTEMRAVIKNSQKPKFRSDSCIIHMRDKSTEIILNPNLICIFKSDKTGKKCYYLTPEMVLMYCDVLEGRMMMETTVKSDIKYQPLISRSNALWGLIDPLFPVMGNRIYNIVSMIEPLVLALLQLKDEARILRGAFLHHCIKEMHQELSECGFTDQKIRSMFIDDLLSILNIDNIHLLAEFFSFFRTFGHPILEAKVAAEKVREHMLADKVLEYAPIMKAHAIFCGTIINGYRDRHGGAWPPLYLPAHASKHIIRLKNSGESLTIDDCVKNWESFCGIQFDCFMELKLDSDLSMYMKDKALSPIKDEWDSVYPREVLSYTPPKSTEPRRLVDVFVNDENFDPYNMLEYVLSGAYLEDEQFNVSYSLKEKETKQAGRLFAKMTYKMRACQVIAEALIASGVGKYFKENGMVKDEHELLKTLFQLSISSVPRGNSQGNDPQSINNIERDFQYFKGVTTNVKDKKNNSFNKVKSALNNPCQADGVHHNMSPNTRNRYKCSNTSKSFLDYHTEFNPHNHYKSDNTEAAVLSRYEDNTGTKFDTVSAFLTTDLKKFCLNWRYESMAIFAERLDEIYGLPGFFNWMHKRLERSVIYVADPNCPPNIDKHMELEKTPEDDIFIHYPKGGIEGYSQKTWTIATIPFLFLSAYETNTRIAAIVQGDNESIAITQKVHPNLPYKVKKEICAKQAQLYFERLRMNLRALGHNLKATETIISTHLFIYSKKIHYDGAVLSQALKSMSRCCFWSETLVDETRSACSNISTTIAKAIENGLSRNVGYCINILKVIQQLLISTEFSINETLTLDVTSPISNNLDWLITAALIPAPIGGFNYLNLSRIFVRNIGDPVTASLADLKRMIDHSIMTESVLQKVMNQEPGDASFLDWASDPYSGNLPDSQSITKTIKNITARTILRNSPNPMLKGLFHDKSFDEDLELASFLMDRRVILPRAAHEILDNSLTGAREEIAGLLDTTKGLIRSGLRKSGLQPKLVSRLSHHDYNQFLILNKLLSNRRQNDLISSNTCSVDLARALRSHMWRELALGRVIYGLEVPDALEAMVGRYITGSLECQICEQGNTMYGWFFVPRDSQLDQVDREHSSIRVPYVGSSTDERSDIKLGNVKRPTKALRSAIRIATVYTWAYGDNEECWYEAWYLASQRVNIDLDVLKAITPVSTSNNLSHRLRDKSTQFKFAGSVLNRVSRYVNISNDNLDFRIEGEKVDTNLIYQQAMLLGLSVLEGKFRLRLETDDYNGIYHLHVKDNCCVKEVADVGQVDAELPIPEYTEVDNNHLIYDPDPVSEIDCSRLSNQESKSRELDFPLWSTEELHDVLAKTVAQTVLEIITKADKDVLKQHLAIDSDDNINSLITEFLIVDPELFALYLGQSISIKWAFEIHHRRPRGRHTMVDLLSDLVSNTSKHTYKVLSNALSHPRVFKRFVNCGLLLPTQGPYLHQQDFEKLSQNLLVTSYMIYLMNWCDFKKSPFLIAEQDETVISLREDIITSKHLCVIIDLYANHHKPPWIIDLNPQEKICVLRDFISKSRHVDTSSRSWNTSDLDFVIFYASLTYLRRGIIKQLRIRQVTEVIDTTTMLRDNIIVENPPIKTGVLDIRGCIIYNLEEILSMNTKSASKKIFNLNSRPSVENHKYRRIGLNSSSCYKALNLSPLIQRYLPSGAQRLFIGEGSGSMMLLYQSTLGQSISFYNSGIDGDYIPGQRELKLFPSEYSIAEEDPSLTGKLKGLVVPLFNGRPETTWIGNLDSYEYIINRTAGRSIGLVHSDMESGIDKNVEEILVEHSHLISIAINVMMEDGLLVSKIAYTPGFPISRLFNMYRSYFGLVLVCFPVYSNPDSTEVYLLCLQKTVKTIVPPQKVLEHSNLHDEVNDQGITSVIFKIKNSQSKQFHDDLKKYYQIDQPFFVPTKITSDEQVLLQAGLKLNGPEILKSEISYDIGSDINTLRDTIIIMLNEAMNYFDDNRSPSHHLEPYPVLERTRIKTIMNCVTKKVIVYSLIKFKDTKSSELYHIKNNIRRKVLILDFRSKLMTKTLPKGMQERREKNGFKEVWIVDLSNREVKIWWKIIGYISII

Compound: CCCCCOc1ccc(-c2cc(-c3ccc(C(=O)N[C@H]4C[C@@H](O)[C@@H](O)NC(=O)[C@@H]5[C@@H](O)[C@@H](C)CN5C(=O)[C@H]([C@H](O)CC(N)=O)NC(=O)[C@H]([C@H](O)[C@@H](O)c5ccc(O)c(OS(=O)(=O)O)c5)NC(=O)[C@@H]5C[C@@H](O)CN5C(=O)[C@H]([C@@H](C)O)NC4=O)cc3)no2)cc1 [Micafungin, 5-(2-(20-(3-amino-1-hydroxy-3-oxopropyl)-2,11,12,15-tetrahydroxy-6-(1-hydroxyethyl)-16-methyl-5,8,14,19,22,25-hexaoxo-9-(4-(5-(4-(pentyloxy)phenyl)isoxazol-3-yl)benzamido)tetracosahydro-1H-dipyrrolo[2,1-c: 2′,1′-1][1,4,7,10,13,16]hexaazacyclohenicosin-23-yl)-1,2-dihydroxyethyl)-2-hydroxyphenyl hydrogen sulfate] (X1-[Orn(4R-OH,5R-OH)]T[Hyp][hTyr(3S-OH,4S-OH,3'-OSO3H)][Gln(3R-OH)][Pro(3S-OH,4S-Me)]; lactam 1-C)
- impact on the RSV polymerase activity in time course (RSV polymerase (L-P) [1]; 0, 25 and 50 μM, FIG. 5A): time and concentration dependent
- activity of RSV polymerase in time course at 50 μM (RSV polymerase (L-P) [1]; 50 μM versus 0 and 25 μM, FIG. 5A): lowest at all time points
- RSV polymerase activity retained relative to the control group (RSV polymerase (L-P) [1]; 1 mM small molecule in 10% DMSO, 10% DMSO negative control, FIG. 2): 29.6%
- inhibition of RSV polymerase in the in vitro assay (in words) (RSV polymerase (L-P) [1]; 1 mM, FIG. 2): significant inhibitory activity
- de novo RNA synthesis activity of RSV polymerase, rank among the tested molecules (RSV polymerase (L-P) [1]; 1 mM, FIG. 3A, compared with 10 other molecules): lowest
- primer-based RNA synthesis activity of RSV polymerase, rank among the tested molecules (RSV polymerase (L-P) [2]): best inhibitors
- inhibition of RNA synthesis activity of VSV polymerase [3]: inhibit
- inhibition of RNA synthesis activity of NiV polymerase (NiV polymerase (L-P)): inhibit
- inhibition of RNA synthesis activity of VSBV polymerase (VSBV polymerase (L-P)): inhibit
- inhibition of RNA synthesis activity of SARS-COV2 polymerase [4]: inhibit

Compound: Cc1ccc(-n2[nH]c(C)c(N=Nc3cccc(-c4cccc(-c5nnn[nH]5)c4)c3O)c2=O)cc1C [Totrombopag, 2-(3,4-dimethylphenyl)-4-((2-hydroxy-3′-(1H-tetrazol-5-yl)-[1,1′-biphenyl]-3-yl)diazenyl)-5-methyl-1,2-dihydro-3H-pyrazol-3-one]
- inhibition of RNA synthesis activity of VSV polymerase [3]: inhibit
- inhibition of RNA synthesis activity of NiV polymerase (NiV polymerase (L-P)): inhibit
- inhibition of RNA synthesis activity of VSBV polymerase (VSBV polymerase (L-P)): inhibit
- inhibition of RNA synthesis activity of SARS-COV2 polymerase [4]: inhibit

Compound: CN1C(N)=NC(C)(c2cc(NC(=O)c3ccc(F)cn3)ccc2F)CS1(=O)=O (stereo not drawn) [Verubecestat, N-(3-(3-amino-2,5-dimethyl-1,1-dioxido-5,6-dihydro-2H-1,2,4-thiadiazin-5-yl)-4-fluorophenyl)-5-fluoropicolinamide]
- inhibition of RSV polymerase in the in vitro assay (in words) (RSV polymerase (L-P) [1]; 1 mM, FIG. 2): showed inhibition
